The text below walks through data of article PMC3785365 (Clinical cancer research : an official journal of the …, 2011).

By IC50 is commonly meant the concentration at which inhibition is half-maximal.

Series [1] relates to phosphorylation of S6 and 4E-BP1. Nature of the series: Western blot of mTOR signaling. The settings on record: glioma cells. Type of series: cell-based, human. On the technique in general: In western blotting, separated proteins are transferred to a membrane and probed.
A further series addresses KDR (Homo sapiens, UniProt P35968). The experiment in a line: Biochemical kinase assay, KDR.
A further series concerns the target T1, PDK1 (Homo sapiens, UniProt O15530).
T1 sequence (O15530 1-556): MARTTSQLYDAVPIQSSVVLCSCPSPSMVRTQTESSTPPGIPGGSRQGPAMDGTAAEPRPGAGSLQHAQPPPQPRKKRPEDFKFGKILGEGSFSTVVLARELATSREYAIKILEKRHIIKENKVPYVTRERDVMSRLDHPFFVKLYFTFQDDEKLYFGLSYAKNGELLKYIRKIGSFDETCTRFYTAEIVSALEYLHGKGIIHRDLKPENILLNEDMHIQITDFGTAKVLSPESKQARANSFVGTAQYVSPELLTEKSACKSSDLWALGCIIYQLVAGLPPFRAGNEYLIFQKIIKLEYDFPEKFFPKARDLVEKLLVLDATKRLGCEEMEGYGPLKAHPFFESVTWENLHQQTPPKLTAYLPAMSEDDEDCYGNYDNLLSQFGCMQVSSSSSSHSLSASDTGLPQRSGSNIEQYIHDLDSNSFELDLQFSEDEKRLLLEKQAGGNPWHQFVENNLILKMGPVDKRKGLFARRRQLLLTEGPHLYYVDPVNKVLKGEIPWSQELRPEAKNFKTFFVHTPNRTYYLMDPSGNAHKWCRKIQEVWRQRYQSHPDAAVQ
The experiment in a line: Biochemical kinase assay, PDK1.

The next series concerns the target c-Met (Homo sapiens, UniProt P08581). The experiment in a line: Biochemical kinase assay, c-Met.
In another series the target is FGFR3 (Homo sapiens, UniProt P22607). Nature of the series: Biochemical kinase assay, FGFR3.
FGFR3, sequence (P22607 23-806, species assumed): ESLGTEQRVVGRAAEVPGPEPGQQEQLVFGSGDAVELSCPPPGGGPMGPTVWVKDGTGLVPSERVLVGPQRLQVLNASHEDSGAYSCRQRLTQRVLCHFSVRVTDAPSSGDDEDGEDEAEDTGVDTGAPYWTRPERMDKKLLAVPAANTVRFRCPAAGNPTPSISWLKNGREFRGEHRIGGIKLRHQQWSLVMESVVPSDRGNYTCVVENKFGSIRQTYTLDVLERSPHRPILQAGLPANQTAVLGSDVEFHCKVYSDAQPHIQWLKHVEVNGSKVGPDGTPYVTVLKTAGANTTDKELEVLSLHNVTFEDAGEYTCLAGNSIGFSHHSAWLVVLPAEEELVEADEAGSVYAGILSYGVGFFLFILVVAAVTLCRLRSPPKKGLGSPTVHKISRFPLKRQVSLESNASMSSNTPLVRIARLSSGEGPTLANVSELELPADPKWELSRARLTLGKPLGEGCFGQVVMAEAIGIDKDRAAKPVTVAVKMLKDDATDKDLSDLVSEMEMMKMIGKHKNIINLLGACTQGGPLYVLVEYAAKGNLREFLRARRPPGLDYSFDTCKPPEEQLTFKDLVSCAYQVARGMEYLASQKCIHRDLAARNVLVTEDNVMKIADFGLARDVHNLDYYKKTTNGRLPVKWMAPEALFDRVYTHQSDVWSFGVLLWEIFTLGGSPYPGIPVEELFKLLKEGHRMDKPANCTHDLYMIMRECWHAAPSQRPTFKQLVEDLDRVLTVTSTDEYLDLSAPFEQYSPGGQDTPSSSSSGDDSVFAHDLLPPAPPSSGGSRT
The target in another series is Tek (Homo sapiens, UniProt Q02763). The experiment in a line: Biochemical kinase assay, Tek.
Tek, sequence (Q02763 23-1124, species assumed): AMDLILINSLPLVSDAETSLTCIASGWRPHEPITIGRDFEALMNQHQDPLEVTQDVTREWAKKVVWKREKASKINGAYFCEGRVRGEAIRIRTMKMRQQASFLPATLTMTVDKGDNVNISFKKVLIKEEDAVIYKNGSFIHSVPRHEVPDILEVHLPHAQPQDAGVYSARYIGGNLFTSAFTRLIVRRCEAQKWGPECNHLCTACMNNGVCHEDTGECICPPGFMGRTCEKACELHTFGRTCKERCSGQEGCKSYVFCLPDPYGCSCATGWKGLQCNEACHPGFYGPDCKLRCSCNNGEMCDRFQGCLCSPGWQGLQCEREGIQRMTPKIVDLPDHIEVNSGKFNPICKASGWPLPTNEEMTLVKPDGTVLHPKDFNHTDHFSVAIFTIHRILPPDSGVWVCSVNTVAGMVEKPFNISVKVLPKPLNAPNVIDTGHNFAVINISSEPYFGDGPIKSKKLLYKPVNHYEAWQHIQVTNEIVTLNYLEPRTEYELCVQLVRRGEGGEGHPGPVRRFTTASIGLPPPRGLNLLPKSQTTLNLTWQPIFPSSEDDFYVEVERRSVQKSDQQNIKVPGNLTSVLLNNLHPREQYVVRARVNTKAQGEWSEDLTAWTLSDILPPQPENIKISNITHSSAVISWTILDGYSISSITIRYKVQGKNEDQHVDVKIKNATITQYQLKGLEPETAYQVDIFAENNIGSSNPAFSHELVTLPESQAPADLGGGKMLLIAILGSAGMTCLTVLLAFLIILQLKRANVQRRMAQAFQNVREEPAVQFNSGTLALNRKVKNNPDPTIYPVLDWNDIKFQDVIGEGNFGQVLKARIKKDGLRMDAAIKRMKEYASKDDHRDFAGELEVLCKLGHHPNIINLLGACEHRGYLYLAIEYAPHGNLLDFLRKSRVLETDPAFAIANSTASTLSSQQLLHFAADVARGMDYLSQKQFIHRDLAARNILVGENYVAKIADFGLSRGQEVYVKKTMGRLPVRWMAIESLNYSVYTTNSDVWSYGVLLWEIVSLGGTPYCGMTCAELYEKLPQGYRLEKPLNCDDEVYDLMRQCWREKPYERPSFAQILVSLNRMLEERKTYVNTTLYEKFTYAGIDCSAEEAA
A further series deals with U87 cells. Nature of the series: Mitotic index. The series is classed as cell-based, human. The settings on record: U87 (p53-wt); 2 μm, 72 hours; control cells 1% to 3%.
For another series, the system named is D54 cells. The experiment in a line: Mitotic index. The series is classed as cell-based, human. The settings on record: D54 (p53-wt); 2 μm, 72 hours; control cells 1% to 3%.
In the next series the test system is U343 cells. Nature of the series: Mitotic index. The series is classed as cell-based, human. As to conditions: U343 (p53-wt); 2 μm, 72 hours; control cells 1% to 3%.
Another series concerns U251 cells. Nature of the series: Mitotic index. The series is classed as cell-based, human. The settings on record: U251 (p53-mutant/deleted); 2 μm, 72 hours; control cells 1% to 3%.
The subject of another series is LN18 cells. Nature of the series: Mitotic index. The series is classed as cell-based, human. As to conditions: LN18 (p53-mutant/deleted); 2 μm, 72 hours; control cells 1% to 3%.
The test system of a further series is LN229 cells. The experiment in a line: Mitotic index. The settings on record: LN229 (p53-mutant/deleted); 2 μm, 72 hours; control cells 1% to 3%. The series is classed as cell-based, human.
Series [2] concerns U87 intracranial xenografts. Nature of the series: Intracranial U87 glioma xenograft survival model. The settings on record: nude mice, control 26 days. Type of series: in vivo.
A short description of series [3]: Tolerability in treated tumor-bearing mice. Type of series: in vivo. As to conditions: 20 or 40 mg/kg oral.
The test system of the next series is glioma cell lines. Nature of the series: Annexin V apoptosis assay by flow cytometry. As to conditions: 72 hours. In general terms: A flow cytometer gives signals particle by particle.
For a further series, the system named is phosphorylation of Akt. The experiment in a line: Inhibition of Akt phosphorylation by immunoblot in U87MG and LN18 cells. As to conditions: Homo sapiens, read-out: IC50 for inhibiting phosphorylation of Akt.
A further series has as its target P110α (Homo sapiens, UniProt P42336). The settings on record: cited from earlier work.
For the next series, the system named is p110γ. The settings on record: cited from earlier work.
The subject of a further series is p110δ. As to conditions: cited from earlier work.

KDR, sequence (P35968 20-1356, species assumed): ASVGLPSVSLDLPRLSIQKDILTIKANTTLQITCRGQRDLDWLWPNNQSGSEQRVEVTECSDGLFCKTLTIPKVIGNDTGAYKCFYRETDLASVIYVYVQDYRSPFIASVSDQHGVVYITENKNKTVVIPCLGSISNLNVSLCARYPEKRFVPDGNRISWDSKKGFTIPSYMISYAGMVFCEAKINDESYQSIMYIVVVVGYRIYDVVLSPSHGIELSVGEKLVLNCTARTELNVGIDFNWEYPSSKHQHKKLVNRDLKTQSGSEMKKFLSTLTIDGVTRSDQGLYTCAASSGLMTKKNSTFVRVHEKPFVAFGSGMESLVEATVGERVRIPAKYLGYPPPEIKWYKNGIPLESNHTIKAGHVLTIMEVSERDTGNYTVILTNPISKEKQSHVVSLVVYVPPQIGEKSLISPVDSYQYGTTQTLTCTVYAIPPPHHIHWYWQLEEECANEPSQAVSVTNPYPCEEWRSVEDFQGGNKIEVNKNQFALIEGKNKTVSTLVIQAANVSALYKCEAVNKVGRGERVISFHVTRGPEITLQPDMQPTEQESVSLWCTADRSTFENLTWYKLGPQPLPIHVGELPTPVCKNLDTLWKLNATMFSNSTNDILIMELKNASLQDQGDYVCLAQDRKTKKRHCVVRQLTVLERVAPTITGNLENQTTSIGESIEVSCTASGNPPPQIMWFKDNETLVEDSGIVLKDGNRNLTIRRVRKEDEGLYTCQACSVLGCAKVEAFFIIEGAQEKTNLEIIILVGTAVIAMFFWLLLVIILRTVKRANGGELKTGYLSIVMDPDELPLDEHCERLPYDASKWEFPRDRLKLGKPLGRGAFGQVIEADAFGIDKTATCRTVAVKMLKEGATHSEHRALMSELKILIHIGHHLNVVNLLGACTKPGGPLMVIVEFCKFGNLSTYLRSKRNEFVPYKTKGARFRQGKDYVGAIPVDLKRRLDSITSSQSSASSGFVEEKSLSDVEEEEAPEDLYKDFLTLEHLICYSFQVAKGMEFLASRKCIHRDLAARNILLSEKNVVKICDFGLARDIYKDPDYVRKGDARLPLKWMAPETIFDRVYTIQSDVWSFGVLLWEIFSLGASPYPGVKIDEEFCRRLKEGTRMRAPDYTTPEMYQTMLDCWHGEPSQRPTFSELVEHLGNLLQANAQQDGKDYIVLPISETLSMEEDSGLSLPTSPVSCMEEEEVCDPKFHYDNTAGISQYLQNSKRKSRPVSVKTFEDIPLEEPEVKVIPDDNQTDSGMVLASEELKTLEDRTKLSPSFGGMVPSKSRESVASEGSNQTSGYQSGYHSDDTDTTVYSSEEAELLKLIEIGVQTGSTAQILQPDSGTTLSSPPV
c-Met, sequence (P08581 25-1390): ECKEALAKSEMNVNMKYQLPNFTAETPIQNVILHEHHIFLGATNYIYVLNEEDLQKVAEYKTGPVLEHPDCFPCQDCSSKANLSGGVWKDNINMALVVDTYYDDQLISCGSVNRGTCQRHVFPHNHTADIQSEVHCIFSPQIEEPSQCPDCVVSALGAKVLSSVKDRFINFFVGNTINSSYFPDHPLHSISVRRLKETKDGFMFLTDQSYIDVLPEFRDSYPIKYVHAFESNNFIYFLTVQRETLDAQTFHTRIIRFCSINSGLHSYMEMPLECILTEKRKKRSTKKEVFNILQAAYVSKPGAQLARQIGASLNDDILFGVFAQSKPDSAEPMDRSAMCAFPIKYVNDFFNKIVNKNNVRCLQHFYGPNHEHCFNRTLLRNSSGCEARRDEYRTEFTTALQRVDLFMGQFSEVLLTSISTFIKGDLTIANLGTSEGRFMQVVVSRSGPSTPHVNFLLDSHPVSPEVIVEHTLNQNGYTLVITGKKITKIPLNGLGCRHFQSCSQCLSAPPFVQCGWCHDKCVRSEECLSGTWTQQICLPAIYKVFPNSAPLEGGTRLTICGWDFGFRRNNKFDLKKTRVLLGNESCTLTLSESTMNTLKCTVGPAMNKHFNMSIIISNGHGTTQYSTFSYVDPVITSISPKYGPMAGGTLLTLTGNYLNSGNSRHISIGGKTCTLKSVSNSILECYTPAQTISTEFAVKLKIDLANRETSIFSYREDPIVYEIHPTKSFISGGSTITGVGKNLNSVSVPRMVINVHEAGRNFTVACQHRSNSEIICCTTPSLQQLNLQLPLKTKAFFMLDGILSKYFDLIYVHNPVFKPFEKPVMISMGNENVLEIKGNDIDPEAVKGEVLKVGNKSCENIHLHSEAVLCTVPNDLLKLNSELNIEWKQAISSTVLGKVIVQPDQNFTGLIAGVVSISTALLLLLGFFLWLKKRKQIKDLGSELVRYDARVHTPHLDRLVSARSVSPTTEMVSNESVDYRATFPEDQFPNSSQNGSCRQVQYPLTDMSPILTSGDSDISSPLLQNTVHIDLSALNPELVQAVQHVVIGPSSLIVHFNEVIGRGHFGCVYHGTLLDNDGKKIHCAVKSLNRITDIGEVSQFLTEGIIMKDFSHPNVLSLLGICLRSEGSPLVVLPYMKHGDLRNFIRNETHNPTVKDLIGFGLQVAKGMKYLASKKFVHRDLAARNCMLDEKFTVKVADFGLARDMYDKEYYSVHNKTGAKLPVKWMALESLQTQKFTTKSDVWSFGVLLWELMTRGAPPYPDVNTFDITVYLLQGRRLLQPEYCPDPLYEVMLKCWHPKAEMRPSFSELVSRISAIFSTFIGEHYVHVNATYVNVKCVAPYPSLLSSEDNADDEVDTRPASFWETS

In the case of `Cn1c(=O)n(-c2ccc(C(C)(C)C#N)cc2)c2c3cc(-c4cnc5ccccc5c4)ccc3ncc21` [NVP-BEZ235, reference compound], the “effect on phosphorylation of S6 and 4E-BP1” value in [1] is “nearly complete dephosphorylation of both S6 and 4E-BP1”.

As for `Nc1cc(C(F)(F)F)c(-c2cc(N3CCOCC3)nc(N3CCOCC3)n2)cn1` [NVP-BKM120], the IC50 against KDR is over 10 µM; against PDK1, over 10 µM; against c-Met, over 10 µM; against FGFR3, over 10 µM; against Tek it was over 10 µM; in the series with phosphorylation of Akt, 0.5 to 1 µM. The “cells in mitosis (phospho-H3 positive) after treatment” value with U87 cells was 2.6%; in the series with D54 cells, 2.8%; in the series with U343 cells, 3%; with U251 cells it was 12.4%; with LN18 cells it was 7.3%; with LN229 cells it was 7.9%. The median survival time amounted to 38 days in [2] (20 mg/kg oral) and 48 days in [2] (40 mg/kg oral). The “adverse effects with respect to body weight, water intake, and general activity” value in series [3] was “no obvious signs of adverse effects”. Also, the “effect on phosphorylation of S6 and 4E-BP1” value in [1] was “minor dephosphorylation only of the S6 protein”. The “change of the percentage of apoptosis (Annexin V)” value came to 3.98% in the series with glioma cell lines (p53-mutant/deleted cell lines) and 14.52% with glioma cell lines (p53-wt cell lines).

Consider `C=CCN(/C=C1/C(=O)O[C@H](COC)[C@@]2(C)C1=C(O)C(=O)C1=C2[C@H](OC(C)=O)C[C@]2(C)C(=O)CC[C@@H]12)CC=C` [PX-866], for which the IC50 result at P110α, in the series with p110γ and in the series on p110δ was “low nanomolar range” in each case.
